According to US8232299B2, “Phthalimide derivatives that influence cellular vesicular systems, pharmaceutical compositions, and use thereof” (Avidin Kft., priority 2007, dated 2012):

What was measured:
[1] = Japanese patent JP10072346; cited from earlier work
[2] = test system: human melanoma (HT168M1); test: subcutaneous melanoma tumor model; type: in vivo, CB17/scid mice; conditions: 40 mg/kg per os, once a day five days per week for 3 weeks from day 7; FIG. 8
Method: Slightly anesthetized (diethyl ether narcosis) adult male CB17/scid mice born with immunodeficiency were subcutaneously (s.c.) implanted with 8×10^5 cells from in vitro human melanoma (HT168M1) cultures. After tumor cell inoculation animals were randomly assigned into three groups and their ears were marked. From the 7th day after the tumor cell inoculation mice were treated once a day five days per week for 3 weeks with compound 2 (40 mg/kg), or with compound 3b (40 mg/kg) per os by gavage. Control animals were treated with appropriate dilution of the carrier (DMSO) in a similar manner with similar frequency. Body weight changes were monitored once a week for each animal. When subcutaneous tumor reached palpable size its dimensions were also detected with caliper. Tumor volume was estimated by the formula π/6×a×b^2, where “a” is the longer and “b” is the shorter diameter. 30 days after implantation animals were sacrificed by bleeding in Nembutal (75 mg/kg) anesthesia. Evaluation was based on the mass of the primary tumor.
In this experiment the effect of compound 2 and compound 3b was tested in oral administration at the same dose (40 mg/kg).

[3] = test system: tumor necrosis factor; conditions: Japanese patent application JP10072346; cited from earlier work

For `CC(C)c1cccc(C(C)C)c1N1C(=O)c2c(F)c(F)c(F)c(F)c2C1=O` [Compound 2, 2-(2,6-diizopropylphenyl)-4,5,6,7-tetrafluorisoindolin-1,3-dione], the anti-inflammatory effect [1] is listed as “has anti-inflammatory effect”, the “effect on growth of the subcutaneous primary tumor (tumor mass)” value [2] is listed as “not significant” and the “production of tumor necrosis factor” value [3] is listed as “inhibits the production of tumor necrosis factor”.
